Experimental data as given in ChEMBL document CHEMBL3616410, “Linked pyridinyl-thiadiazoles: Design and synthesis as potential candidate for treatment of XDR and MDR tuberculosis” (Eur J Med Chem, 2015).
≈ marks a conversion by molar mass, not a printed value.

Assays:
Assay type in all cases: functional
[1] = system: Mycobacterium tuberculosis; assay: Antimycobacterial activity against multi-drug resistant Mycobacterium tuberculosis TN1811 after 5 days by spectrophotometry; details: TN1811, 120 h
[2] = system: Mycobacterium tuberculosis; assay: Antimycobacterial activity against multi-drug resistant Mycobacterium tuberculosis TN2557 after 5 days by spectrophotometry; details: TN2557, 120 h
[3] = system: Mycobacterium tuberculosis; assay: Antimycobacterial activity against multi-drug resistant Mycobacterium tuberculosis TN565 after 5 days by spectrophotometry; details: TN565, 120 h
[4] = system: Mycobacterium tuberculosis; assay: Antimycobacterial activity against multi-drug resistant Mycobacterium tuberculosis TN576 after 5 days by spectrophotometry; details: TN576, 120 h
[5] = system: Mycobacterium tuberculosis; assay: Antimycobacterial activity against multi-drug resistant Mycobacterium tuberculosis TN702 after 5 days by spectrophotometry; details: TN702, 120 h
[6] = system: Mycobacterium tuberculosis; assay: Antimycobacterial activity against multi-drug resistant Mycobacterium tuberculosis TN715 after 5 days by spectrophotometry; details: TN715, 120 h
[7] = system: Mycobacterium tuberculosis; assay: Antimycobacterial activity against multi-drug resistant Mycobacterium tuberculosis TN768 after 5 days by spectrophotometry; details: TN768, 120 h
[8] = system: Mycobacterium tuberculosis; assay: Antimycobacterial activity against multi-drug resistant Mycobacterium tuberculosis TN772 after 5 days by spectrophotometry; details: TN772, 120 h
[9] = system: Mycobacterium tuberculosis; assay: Antimycobacterial activity against multi-drug resistant Mycobacterium tuberculosis TN1195 after 5 days by spectrophotometry; details: TN1195, 120 h
[10] = system: Mycobacterium tuberculosis; assay: Antimycobacterial activity against multi-drug resistant Mycobacterium tuberculosis TN1314 after 5 days by spectrophotometry; details: TN1314, 120 h
[11] = system: Mycobacterium tuberculosis; assay: Antimycobacterial activity against multi-drug resistant Mycobacterium tuberculosis TN1618 after 5 days by spectrophotometry; details: TN1618, 120 h

SMILES: O=C(CCSc1nnc(-c2ccncc2)s1)Nc1ccc(Cl)cc1
- MIC [1]: 0.03 µg/mL (≈ 0.0796 µM)
- MIC [2]: 0.13 µg/mL (≈ 0.345 µM)
- MIC [3]: 0.06 µg/mL (≈ 0.159 µM)
- MIC [4]: 0.06 µg/mL (≈ 0.159 µM)
- MIC [5]: 0.25 µg/mL (≈ 0.663 µM)
- MIC [6]: 0.06 µg/mL (≈ 0.159 µM)
- MIC [7]: 0.06 µg/mL (≈ 0.159 µM)
- MIC [8]: 0.03 µg/mL (≈ 0.0796 µM)
- MIC [9]: 0.25 µg/mL (≈ 0.663 µM)
- MIC [10]: 0.03 µg/mL (≈ 0.0796 µM)
- MIC [11]: 0.06 µg/mL (≈ 0.159 µM)
